Test results published in patent US6465433B1, “Boronic ester and acid compounds, synthesis and uses” (Millennium Pharmaceuticals, Inc., priority 1994, dated 2002).

Key:
[1] = target: SDS-activated 20S proteasome from rabbit muscle (Oryctolagus cuniculus, UniProt G1SU71+G1T4Q9); assay: Kinetic assay: inhibition of the 20S proteasome; assay type: biochemical
Description: P, AA^1, AA^2, AA^3, and Z^1 and Z^2 represent the structures present on formula (1) or (2). The protocol for the kinetic assay described in Tables II-V is as described in Rock et al., Cell 78:761-771 (1994). In these tables, Ki values are reported, which are dissociation constants for the equilibrium that is established when enzyme and inhibitor interact to form the enzyme:inhibitor complex. The reactions were performed using SDS-activated 20S proteasome from rabbit muscle. The substrate used was Suc-LLVY-AMC.

C2C12 cells = assay: Inhibition of protein degradation in C2C12 cells; assay type: cell-based, mouse; settings: 35S-methionine labelled cells, percent decrease in TCA soluble radioactivity, media with 50% serum
Description: One approach to testing drug candidates for their ability to inhibit the ATP-ubiquitin-dependent degradative process is to measure proteolysis in cultured cells (Rock, et al., Cell 78:761 (1994)). For example, the degradation of long-lived intracellular proteins can be measured in mouse C2C12 myoblast cells. Cells are incubated with ^35S-methionine for 48 hours to label long-lived proteins and then chased for 2 hours with medium containing unlabeled methionine. After the chase period, the cells are incubated for 4 hours in the presence or absence of the test compound. The amount of protein degradation in the cell can be measured by quantitating the trichloroacetic acid soluble radioactivity released from the pre-labeled proteins into the growth medium (an indicator of intracellular proteolysis).
C2C12 cells (a mouse myoblast line) were labelled for 48 hrs with ^35S-methionine. The cells were then washed and preincubated for 2 hrs in the same media supplemented with 2 mM unlabelled methionine. The media was removed and replaced with a fresh aliquot of the preincubation media containing 50% serum, and a concentration of the compound to be tested. The media was then removed and made up to 10% TCA and centrifuged. The TCA soluble radioactivity was counted. Inhibition of proteolysis was calculated as the percent decrease in TCA soluble radioactivity.

[2] = Table II, SDS-activated 20S proteasome from rabbit muscle, substrate Suc-LLVY-AMC

CC(C)C[C@@H](C=O)NC(=O)[C@H](CC(C)C)NC(=O)OCc1ccccc1 [MG-105, reference compound]
Ki ([1]; Table III, dipeptide boronic acid vs dipeptide aldehyde): 15000 nM

CC(C)CC(NC(=O)C(CC(C)C)NC(=O)C(CC(C)C)NC(=O)OCc1ccccc1)B1OC2CC3CC(C3(C)C)C2(C)O1 (stereo not drawn) [MG-261]
Ki [1, 2]: 0.032 nM

CC(C)CC(NC(=O)C(CC(C)C)NC(=O)OCc1ccccc1)B1OC2CC3CC(C3(C)C)C2(C)O1 (stereo not drawn) [MG-264]
Ki [1, 2]: 119 nM

CC(C)C[C@H](NC(=O)[C@H](Cc1cccc2ccccc12)NC(=O)OCc1ccccc1)B(O)O [MG-270]
IC50 (C2C12 cells): 730 nM | Ki [1, 2]: 0.083 nM

CC(C)CC(NC(=O)C(Cc1ccc2ccccc2c1)NC(=O)OCc1ccccc1)B(O)O (stereo not drawn) [MG-272]
IC50 (C2C12 cells): 6000 nM | Ki [1, 2]: 34 nM

CC(C)C[C@H](NC(=O)[C@H](CC(C)C)NC(=O)[C@H](CC(C)C)NC(=O)N1CCOCC1)B(O)O [MG-278]
IC50 (C2C12 cells; Mus musculus, C2C12): 7500 nM | Ki [1, 2]: 0.14 nM

CC(C)C[C@H](NC(=O)[C@H](Cc1c[nH]cn1)NC(=O)OCc1ccccc1)B(O)O [MG-282]
IC50 (C2C12 cells): 64000 nM | Ki [1, 2]: 25 nM

CC(=O)N[C@@H](CC(C)C)C(=O)N[C@@H](CC(C)C)C(=O)N[C@@H](CC(C)C)B(O)O [MG-283]
IC50 (C2C12 cells; Mus musculus, C2C12): 3000 nM | Ki [1, 2]: 0.46 nM

CO[C@](C(=O)N[C@@H](CC(C)C)B(O)O)(c1ccccc1)C(F)(F)F [MG-284]
Ki [1, 2]: 1200 nM

CC(C)C[C@H](NC(=O)[C@H](Cc1c[nH]c2ccccc12)NC(=O)N1CCOCC1)B(O)O [MG-285]
IC50 (C2C12 cells): 2400 nM | Ki [1, 2]: 3 nM

CC(C)C[C@H](NC(=O)[C@H](Cc1cccc2ccccc12)NC(=O)N1CCOCC1)B1OCCNCCO1 [MG-286, Diethanolamine N-(4-Morpholine)carbonyl-β-(1-naphthyl)-L-alanine-L-leucine Boronate]
IC50 (C2C12 cells; Mus musculus, C2C12): 95 nM | Ki [1, 2]: 0.15 nM

CC(C)C[C@H](NC(=O)[C@H](Cc1cccnc1)NS(C)(=O)=O)B(O)O [MG-289]
IC50 (C2C12 cells): 10800 nM | Ki [1, 2]: 6.3 nM

CC(=O)N[C@@H](Cc1cccnc1)C(=O)N[C@@H](CC(C)C)B(O)O [MG-290]
IC50 (C2C12 cells): 10200 nM | Ki [1, 2]: 5.4 nM

CC(C)C[C@H](NC(=O)[C@H](Cc1cccc2ccccc12)NS(C)(=O)=O)B1OCCNCCO1 [MG-291]
Ki [1, 2]: 0.28 nM

CC(C)CC(NC(=O)C(Cc1ccc2ncccc2c1)NC(=O)N1CCOCC1)B(O)O [MG-292, N-(4-Morpholine)carbonyl-β-(6-quinolinyl)-D, L-alanine-L-leucine Boronic Acid]
IC50 (C2C12 cells; Mus musculus, C2C12): 11300 nM | Ki [1, 2]: 6 nM

CC(C)CC(NC(=O)C(Cc1cccc2ccccc12)NC(=O)N1CCOCC1)B(O)O (stereo not drawn) [MG-293]
Ki [1, 2]: 2300 nM

CC(C)C[C@H](NC(=O)[C@@H](N)Cc1cccnc1)B(O)O [MG-294]
Ki [1, 2]: 152 nM

CC(C)C[C@H](NC(=O)[C@H](Cc1c[nH]c2ccccc12)NS(C)(=O)=O)B(O)O [MG-295]
Ki [1, 2]: 5.8 nM

CC(C)C[C@H](NC(=O)[C@H](Cc1cccc2ccccc12)NC(=O)c1ccc2ccccc2n1)B(O)O [MG-298]
IC50 (C2C12 cells): 230 nM | Ki [1, 2]: 0.075 nM

CC(C)C[C@H](NC(=O)[C@H](Cc1cccc2ccccc12)NC(=O)c1cnc2ccccc2n1)B(O)O [MG-299]
IC50 (C2C12 cells): 280 nM | Ki [1, 2]: 0.14 nM

CC(C)C[C@H](NC(=O)[C@H](Cc1cccnc1)NC(=O)N1CCOCC1)B(O)O [MG-300]
Ki [1, 2]: 1.3 nM

CC(=O)N[C@@H](Cc1c[nH]c2ccccc12)C(=O)N[C@@H](CC(C)C)B(O)O [MG-301]
IC50 (C2C12 cells): 1300 nM | Ki [1, 2]: 1.3 nM

CC(C)C[C@H](NC(=O)[C@H](Cc1ccc(OCc2ccccc2)cc1)NC(=O)N1CCOCC1)B(O)O [MG-306, N-(4-Morpholine)carbonyl-(O-benzyl)-L-tyrosine-L-leucine Boronic Acid]
IC50 (C2C12 cells; Mus musculus, C2C12): 130 nM | Ki [1, 2]: 0.23 nM

CC(C)C[C@H](NC(=O)[C@H](Cc1ccc(O)cc1)NC(=O)N1CCOCC1)B(O)O [MG-307, N-(4-morpholine)carbonyl-L-tyrosine-L-leucine boronic acid]
IC50 (C2C12 cells): 4800 nM | Ki [1, 2]: 0.51 nM

CC(C)CC(NC(=O)C(Cc1ccc2ccccc2c1)NC(=O)N1CCOCC1)B(O)O (stereo not drawn) [MG-308]
IC50 (C2C12 cells): 96 nM | Ki [1, 2]: 0.72 nM

CC(=O)N1Cc2ccccc2CC1C(=O)N[C@@H](CC(C)C)B(O)O (stereo partly drawn) [MG-310, N-Acetyl-1,2,3,4-tetrahydro-3-isoquinolinecarbonyl-L-leucine Boronic Acid]
Ki [1, 2]: 90 nM

CC(C)C[C@H](NC(=O)[C@H](Cc1ccccn1)NC(=O)N1CCOCC1)B(O)O [MG-312]
IC50 (C2C12 cells): 1100 nM | Ki [1, 2]: 6.3 nM

CC(C)C[C@H](NC(=O)CCc1ccccc1)B(O)O [MG-313]
IC50 (C2C12 cells; Mus musculus, C2C12): 3500 nM

CC(C)C[C@H](NC(=O)[C@H](Cc1ccccc1)NC(=O)c1ccc2ccccc2n1)B(O)O [MG-314]
IC50 (C2C12 cells): 130 nM | Ki [1, 2]: 0.19 nM

CC(C)C[C@H](NC(=O)[C@H](Cc1ccc2ccccc2n1)NC(=O)N1CCOCC1)B(O)O [MG-315, N-(4-Morpholine)carbonyl-β-(2-quinolyl)-L-alanine-L-leucine Boronic Acid]
IC50 (C2C12 cells; Mus musculus, C2C12): 340 nM | Ki [1, 2]: 2.2 nM

CC(C)C[C@H](NC(=O)[C@@H]1Cc2ccccc2CN1)B(O)O [MG-316]
IC50 (C2C12 cells; Mus musculus, C2C12): 21000 nM | Ki [1, 2]: 22 nM

CB(O)[C@H](CC(C)C)NC(=O)[C@H](Cc1cccc2ccccc12)NC(=O)N1CCOCC1 [MG-317, N-(4-Morplioline)carbonyl-β-(1-naphtlyl)-L-alanine-L-leucine Methylboronic Acid]
Ki [1, 2]: 99 nM

CB(C)[C@H](CC(C)C)NC(=O)[C@H](Cc1cccc2ccccc12)NC(=O)N1CCOCC1 [MG-318, N-(4-Morpholine)carbonyl-β-(1-naphthyl)-L-alanine-L-leucine Dimethylborane]
Ki [1, 2]: 640 nM

CC(=O)N[C@@H](CC(C)C)B(O)O [MG-323]
Ki [1, 2]: 850 nM

CC(C)C[C@H](NC(=O)[C@@H](CC(=O)N1CCOCC1)Cc1cccc2ccccc12)B(O)O [MG-324, N-[3-(4-Morpholine)carbonyl-2(R)-(1-naphthyl)methyl]propionyl-L-leucine Boronic Acid]
Ki [1, 2]: 2 nM

CC(C)CC(NC(=O)C1NCCc2ccccc21)B(O)O (stereo not drawn) [MG-337]
Ki [1, 2]: 230 nM

CC(C)C[C@H](NC(=O)[C@H](Cc1ccccn1)NC(=O)c1ccc2ccccc2n1)B(O)O [MG-338]
Ki [1, 2]: 1.4 nM

CC(C)CC(NC(=O)C1CCCNC1)B(O)O (stereo not drawn) [MG-339]
Ki [1, 2]: 1600 nM

CC(C)C[C@H](CC(=O)NCc1ccccc1)B(O)O [MG-342, N-Benzyl-(3R)-3-dioxyboryl-5-methylhexanamide]
Ki [1, 2]: 9700 nM

CC(=O)N1Cc2[nH]c3ccccc3c2C[C@H]1C(=O)N[C@@H](CC(C)C)B(O)O [MG-344]
Ki [1, 2]: 51 nM

CC(C)C[C@H](NC(=O)[C@@H]1C[C@@H](O)CN1)B(O)O [MG-348]
Ki [1, 2]: 21 nM

CC(C)C[C@H](NC(=O)[C@H](Cc1ccccc1)NC(=O)c1ccccc1)B(O)O [MG-353]
Ki [1, 2]: 0.15 nM

CC(C)C[C@H](NC(=O)C[C@H](O)[C@H](Cc1cccc2ccccc12)NS(=O)(=O)c1cccc2cccnc12)B(O)O [MG-354]
Ki [1, 2]: 28 nM

CC(C)C[C@H](NC(=O)[C@H](Cc1ccccc1)NC(=O)OCc1ccccc1)B(O)O [MG-356]
Ki [1, 2]: 0.13 nM

CC(C)CC(NC(=O)C1CCCCN1)B(O)O (stereo not drawn) [MG-357]
Ki [1, 2]: 23 nM

CC(C)C[C@H](NC(=O)[C@H](Cc1ccccc1)NC(=O)c1ccoc1)B(O)O [MG-358]
Ki [1, 2]: 0.17 nM

CC(C)C[C@H](NC(=O)[C@H](Cc1ccccc1)NC(=O)c1cc[nH]c1)B(O)O [MG-361]
Ki [1, 2]: 0.14 nM

CC(C)C[C@H](NC(=O)NCc1ccccc1)B(O)O [MG-362]
Ki [1, 2]: 6400 nM

CC(C)C[C@H](NC(=O)[C@@H]1CCCCN1)B(O)O [MG-366]
Ki [1, 2]: 45.2 nM

CC(C)C[C@H](NC(=O)[C@H](Cc1ccccn1)NC(=O)c1cnccn1)B(O)O [MG-368]
Ki [1, 2]: 5.6 nM

CC(C)C[C@H](NC(=O)[C@@H]1CCN1)B(O)O [MG-369]
Ki [1, 2]: 24.2 nM

CC(C)C[C@H](NC(=O)[C@H](Cc1ccccc1)NS(=O)(=O)c1cccc2cccnc12)B(O)O [MG-380]
Ki [1, 2]: 4.4 nM

CC(C)C[C@H](NC(=O)[C@H](Cc1ccc(F)cc1)NC(=O)c1cnccn1)B(O)O [MG-382]
Ki [1, 2]: 0.95 nM

CC(C)C[C@@H](NC(=O)[C@H](Cc1ccc(F)cc1)NC(=O)c1ccccn1)B(O)O [MG-383]
Ki [1, 2]: 0.84 nM

CC(C)C[C@H](NC(=O)[C@@H]1C[C@@H](OCc2ccc3ccccc3n2)CN1)B(O)O [MG-385]
Ki [1, 2]: 23 nM

CC(C)CC(NC(=O)C1CC2CCCCC2N1)B(O)O (stereo not drawn) [MG-386]
Ki [1, 2]: 92 nM

N-(3-phenylpropionyl)-L-phenylalanine-L-leucine boronic acid [MG-352]
Ki [1, 2]: 0.15 nM

N-Methyl-N-Cbz-L-leucine-L-leucine Boronic Acid [MG-268]
Ki [1, 2]: 998 nM

cis-3-Phenyl-D,L-proline-L-leucine Boronic Acid Hydrochloride Salt [MG-359]
Ki [1, 2]: 5.5 nM

trans-3-Phenyl-D,L-proline-L-leucine Boronic Acid Hydrochloride Salt [MG-363]
Ki [1, 2]: 3.45 nM

trans-4-Phenoxy-L-proline-L-leucine Boronic Acid [MG-349]
Ki [1, 2]: 18 nM
